From ChEMBL document CHEMBL1201862, “PubChem BioAssay data set” (2004)
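1) Cells in 96-well plates. 2) Compound, 48 h, 5 concentrations. 3) Linear interpolation between surrounding doses. 4) Unreached endpoint = highest concentration. GI50 marks 50% less growth.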 Active and inactive are the calls of the source. Rule as the data show it: active = GI50 up to about 1.1 µM and inactive = higher.

What was measured:
Experiment in all cases: NCI anticancer screen, dose series, 48 h
786-0 = tested on: 786-0
A498 = tested on: A498
A549 = tested on: A549
ACHN = tested on: ACHN
CCRF-CEM = tested on: CCRF-CEM
EKVX = tested on: EKVX
HCT-15 = tested on: HCT-15
HT-29 = tested on: HT-29
KM12 = tested on: KM12
M14 = tested on: M14
Malme-3M = tested on: Malme-3M
NCI-H226 = tested on: NCI-H226
NCI/ADR-RES = tested on: NCI/ADR-RES
OVCAR-3 = tested on: OVCAR-3
PC-3 = tested on: PC-3
SF-539 = tested on: SF-539
SK-MEL-5 = tested on: SK-MEL-5
TK-10 = tested on: TK-10
UACC-257 = tested on: UACC-257
UACC-62 = tested on: UACC-62

Row | SMILES | GI50 (786-0) | GI50 (A498) | GI50 (A549) | GI50 (ACHN) | GI50 (CCRF-CEM) | GI50 (EKVX) | GI50 (HCT-15) [µM] | GI50 (HT-29) | GI50 (KM12) | GI50 (M14) | GI50 (Malme-3M) | GI50 (NCI-H226) | GI50 (NCI/ADR-RES) | GI50 (OVCAR-3) | GI50 (PC-3) | GI50 (SF-539) | GI50 (SK-MEL-5) | GI50 (TK-10) | GI50 (UACC-257) | GI50 (UACC-62)
1 | Nc1nnnn1NC(=O)NCCCl | > 10 µM (inactive) | > 10 µM (inactive) | > 10 µM (inactive) | > 10 µM (inactive) | > 10 µM (inactive) | > 10 µM (inactive) | > 10 | > 10 µM (inactive) | > 10 µM (inactive) | > 10 µM (inactive) | > 10 µM (inactive) | > 10 µM (inactive) | > 10 µM (inactive) | > 10 µM (inactive) | > 10 µM (inactive) | > 10 µM (inactive) | > 10 µM (inactive) | > 10 µM (inactive) | > 10 µM (inactive) | > 10 µM (inactive)
2 | O=C(CC(O)(C(F)(F)Cl)C(F)(F)Cl)CC(O)(C(F)(F)Cl)C(F)(F)Cl | 2.89 µM (inactive) | 2.21 µM (inactive) | 1.73 µM (inactive) | 0.927 µM (active) | 2.29 µM (inactive) | 1.21 µM (inactive) | 1.07 | 1.65 µM (inactive) | 3.04 µM (inactive) | 4.03 µM (inactive) | 0.483 µM (active) | 1.33 µM (inactive) | 2.06 µM (inactive) | 1.12 µM (inactive) | 1.11 µM (active) | 2.95 µM (inactive) | 1.25 µM (inactive) | 1.81 µM (inactive) | 1.41 µM (inactive) | 0.738 µM (active)
3 | COC(=O)/C=C(\S/C(=N\n1cc(C(=O)OC)c(C(=O)OC)c1-c1ccc(C)cc1)c1ccc(C)cc1)C(=O)OC | 4.44 µM (inactive) | 12.8 µM (inactive) | 18.7 µM (inactive) | 2.34 µM (inactive) | 0.34 µM (active) | 15.7 µM (inactive) | 2.28 | 4.91 µM (inactive) | 19.1 µM (inactive) | 5.94 µM (inactive) | 6.52 µM (inactive) | 1.7 µM (inactive) | 6.87 µM (inactive) | 4.67 µM (inactive) | 5.28 µM (inactive) | 17.9 µM (inactive) | 13.4 µM (inactive) | 3.03 µM (inactive) | 4.72 µM (inactive) | 12 µM (inactive)
